Test results as given in patent US20070281900A1, “COMPOSITIONS AND METHODS FOR LIPID AND POLYPEPTIDE BASED siRNA [sequence] [sequence]” (NASTECH PHARMACEUTICAL COMPANY INC., priority 2006, published 2007).
Peptide text beside a SMILES is read from it.

Test system: 9L/LacZ cells
Assay: Cell confluency as measure of effect of transfection condition on cell growth
Details: Qneg siRNA 100 nM, PN183 7 μM or PN73 2 μM where named, nontransfected cells 70%
Protocol: For each transfection mixture, 9L/LacZ cells (passage 8) were plated at density of 6.0×10^3 cells/well on a 96-well plate. […] The cationic lipid […]™ served as a positive transfection control. Non-transfected cells served as a negative transfection control and a positive control for cell growth.
Transfection efficiency was calculated by dividing the number of fluorescently labeled cells by the total number of cells and multiplying by 100. Cell confluency was used to measure the effect of each transfection condition on cell growth.

C[C@@H](O)[C@H](NC(=O)[C@H](CCC(=O)O)NC(=O)[C@H](Cc1c[nH]c2ccccc12)NC(=O)[C@H](Cc1c[nH]c2ccccc12)NC(=O)[C@@H](NC(=O)[C@H](CCC(=O)O)NC(=O)[C@@H](N)CCCCN)[C@@H](C)O)C(=O)N[C@@H](Cc1c[nH]c2ccccc12)C(=O)N[C@@H](Cc1c[nH]c2ccccc12)C(=O)N[C@H](C(=O)N[C@@H](CCC(=O)O)C(=O)N[C@@H](Cc1c[nH]c2ccccc12)C(=O)N[C@@H](CO)C(=O)N[C@@H](CCC(N)=O)C(=O)N1CCC[C@H]1C(=O)NCC(=O)N[C@@H](CCCNC(=N)N)C(=O)N[C@@H](CCCCN)C(=O)N[C@@H](CCCCN)C(=O)N[C@@H](CCCNC(=N)N)C(=O)N[C@@H](CCCNC(=N)N)C(=O)N[C@@H](CCC(N)=O)C(=O)N[C@@H](CCCNC(=N)N)C(=O)N[C@@H](CCCNC(=N)N)C(=O)N[C@@H](CCCNC(=N)N)C(=O)N1CCC[C@H]1C(=O)N1CCC[C@H]1C(=O)N[C@@H](CCC(N)=O)C(N)=O)[C@@H](C)O [PN183] (H-KETWWETWWTEWSQPGRKKRRQRRRPPQ-NH2)
% Cell Confluency 20 nM (lipid group 20 nM): 70%
% Cell Confluency 60 nM (lipid group 60 nM): 70%
